Assay results from the supplement of paper PMC10307832.

Columns and labels:
Assay in all cases: relative viability (nuclei count vs DMSO), 5 days (fraction); higher = more cells survive
[1] = compound: CCN(CCO)CCCC(C)Nc1ccnc2cc(Cl)ccc12 [Hydroxychloroquine] + CC1(C)CCC(c2ccc(Cl)cc2)=C(CN2CCN(c3ccc(C(=O)NS(=O)(=O)c4ccc(N[C@H](CCN5CCOCC5)CSc5ccccc5)c(S(=O)(=O)C(F)(F)F)c4)cc3)CC2)C1 [Navitoclax] (partner 0.5 µM)
In short: (§1)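 Cells from lung cancer lines were seeded into 1536-well plates and, one day later, dosed by pin tool. Treatments were either a single drug or a fixed dose of an anchor drug with five library-drug doses (not always all listed) in √10 steps. After 5 days, nuclei were stained in a one-step fixation (final 0.05% Triton X-100, 1% formaldehyde, 1 ug/ml Hoechst) and counted on 4× images, and relative viability is the treated-to-vehicle nuclei ratio, as the median of duplicate plates.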

[2] = compound: CCN(CCO)CCCC(C)Nc1ccnc2cc(Cl)ccc12 [Hydroxychloroquine] + CCNC(=O)c1noc(-c2cc(C(C)C)c(O)cc2O)c1-c1ccc(CN2CCOCC2)cc1 [Luminespib] (partner 0.01 µM)
In short: as §1

[3] = compound: CCN(CCO)CCCC(C)Nc1ccnc2cc(Cl)ccc12 [Hydroxychloroquine] + COc1cc2c(Oc3ccc(NC(=O)C4(C(=O)Nc5ccc(F)cc5)CC4)cc3F)ccnc2cc1OCCCN1CCOCC1 [Foretinib] (partner 0.25 µM)
In short: as §1

[4] = compound: CCN(CCO)CCCC(C)Nc1ccnc2cc(Cl)ccc12 [Hydroxychloroquine] + C[C@]1(O)C[C@@H](c2nc(-c3ccc4ccc(-c5ccccc5)nc4c3)c3c(N)nccn32)C1 [Linsitinib] (partner 1 µM)
In short: as §1

Cell Line	relative viability ([1]; first compound 0.5 µM)	relative viability ([1]; first compound 1.581 µM)	relative viability ([1]; first compound 5 µM)	relative viability ([1]; first compound 15.81 µM)	relative viability ([1]; first compound 50 µM)	relative viability ([2]; first compound 0.5 µM)	relative viability ([2]; first compound 1.581 µM)	relative viability ([2]; first compound 5 µM)	relative viability ([2]; first compound 15.81 µM)	relative viability ([2]; first compound 50 µM)	relative viability ([3]; first compound 0.5 µM)	relative viability ([3]; first compound 1.581 µM)	relative viability ([3]; first compound 5 µM)	relative viability ([3]; first compound 15.81 µM)	relative viability ([3]; first compound 50 µM)	relative viability ([4]; first compound 0.5 µM)	relative viability ([4]; first compound 1.581 µM)	relative viability ([4]; first compound 5 µM)	relative viability ([4]; first compound 15.81 µM)	relative viability ([4]; first compound 50 µM)
NCI-H647	1.23	0.938	1.29	1.19	1.31	0.204	0.141	0.132	0.234	0.142	1.25	1.16	1.18	1.39	1.25	1.27	1.01	1.29	1.25	1.22
NCI-H727	0.456	0.399	0.482	0.357	0.406	0.265	0.423	0.318	0.464	0.779	0.752	0.767	0.735	0.794	0.922	0.279	0.276	0.306	0.305	0.357
NCI-H838	1.16	1.11	1.13	1.14	1.24	0.318	0.304	0.333	0.295	0.268	1.07	0.978	1.08	0.98	1.13	0.929	0.91	1.01	0.93	1.04
NCI-H1355	0.891	0.879	0.876	0.991	1.01	0.877	0.754	0.712	0.632	0.729	0.941	0.965	0.956	1.02	0.979	0.872	0.879	0.896	0.809	0.892
NCI-H1395	1.21	1.05	1.17	1.18	1.01	0.655	0.785	0.722	0.886	0.483	1.06	0.989	0.872	0.963	1.02	0.964	0.979	1.13	1.13	1.18
NCI-H1437	1.08	1.1	1.11	1.14	1.11	1.2	1.1	1.18	1.04	1.24	1.26	1.26	1.33	1.31	1.28	0.904	1.07	1.18	1.16	1.05
NCI-H1651	0.927	1.05	1.12	1.07	1.01	0.843	0.817	0.89	0.739	0.963	0.934	0.762	0.865	0.925	0.88	0.909	1.1	0.975	1.14	0.963
NCI-H1666	0.921	0.951	0.986	0.827	0.918	1.02	0.989	0.981	1.01	0.923	0.969	0.949	0.876	0.894	0.872	0.764	0.773	0.771	0.813	0.724
